Data taken from publication PMC12000319, “Proton conductance by human uncoupling protein 1 is inhibited by purine and pyrimidine nucleotides” (The EMBO Journal, 2025).
“And” between values parts separate entries of the source, which are not always exact repeats. Identical values can stand only once. Like-named read-outs stand apart in the source and are kept apart here.

How the values were obtained:
[1] = biological target: T1, UCP1 (Homo sapiens, UniProt P25874); assay: Liposome reconstitution and proton conductance assay (pyranine fluorescence); type: biochemical; conditions: UCP1 proteoliposomes, 200 µM oleic acid + 500 µM nucleotide, 2.5 µM valinomycin; single reconstitutions
T1 construct: His8 (N, cleaved yes); Factor Xa protease cleavage site (N, cleaved yes); made in house; host or cells: Saccharomyces cerevisiae strain W303.1B
T1 sequence (P25874 1-307): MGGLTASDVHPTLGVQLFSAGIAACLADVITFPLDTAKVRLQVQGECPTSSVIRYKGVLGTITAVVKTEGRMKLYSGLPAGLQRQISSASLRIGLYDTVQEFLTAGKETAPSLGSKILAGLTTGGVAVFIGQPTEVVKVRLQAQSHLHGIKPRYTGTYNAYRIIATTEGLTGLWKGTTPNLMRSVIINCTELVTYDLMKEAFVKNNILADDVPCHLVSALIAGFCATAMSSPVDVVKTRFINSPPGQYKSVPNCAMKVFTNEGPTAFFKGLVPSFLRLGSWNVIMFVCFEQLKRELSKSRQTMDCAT

[2] = biological target: T1, UCP1; assay: Isothermal titration calorimetry of nucleotide binding; parameters: isotherm data point (enthalpy change per injection): unit not given here; conditions: for isotherm data point (enthalpy change per injection): representative isotherm;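 on all read-outs here: purified human UCP1 in cacodylate buffer with lauryl maltose neopentyl glycol and cardiolipin, titrated with nucleotides, isotherms fitted by one-site model yielding ΔH, Kd and stoichiometry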
[3] = biological target: T2, human OGC (SLC25A11) (Homo sapiens, UniProt Q02978); assay: Differential scanning fluorimetry (nanoDSF) thermal stability shift assay; type: binding; conditions: 1 mM nucleotide, pH 6.0, single repeats (source data Fig. 4A)
T2 construct: His8 (N, cleaved yes); Factor Xa protease cleavage site (N, cleaved yes); made in house; host or cells: Saccharomyces cerevisiae strain W303.1B
T2 sequence (Q02978 1-314): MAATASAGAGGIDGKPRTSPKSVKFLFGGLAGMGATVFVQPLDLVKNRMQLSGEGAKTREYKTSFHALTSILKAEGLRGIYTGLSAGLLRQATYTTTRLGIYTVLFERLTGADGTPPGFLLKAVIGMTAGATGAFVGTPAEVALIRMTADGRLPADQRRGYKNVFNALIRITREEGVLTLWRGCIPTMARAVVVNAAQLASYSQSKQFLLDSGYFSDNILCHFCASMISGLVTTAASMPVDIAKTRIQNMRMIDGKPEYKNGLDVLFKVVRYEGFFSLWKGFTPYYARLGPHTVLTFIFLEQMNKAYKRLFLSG
From the text: UCP1 is phylogenetically related to mitochondrial dicarboxylate carriers, gaining thermogenic properties as a later evolutionary development (Hughes et al, [2009]; Robinson et al, [2008]). The mitochondrial dicarboxylate carrier (DIC, SLC25A10) and oxoglutarate carrier (OGC, SLC25A11) are most closely related to UCP1 (Gaudry et al, [2019]; Hughes et al, [2009]) and share many residues involved in nucleotide binding in UCP1, such as the arginine triplet at the contact points, R92 and Q85 (Jones et al, [2024]). Given the similarity of the central cavity of UCP1, OGC and DIC, we tested whether the dicarboxylate carriers have the ability to bind nucleotides. For this purpose, we purified human DIC and OGC, and tested whether nucleotides were able to generate a thermostability shift, as observed for their physiological substrates (Pyrihová et al, [2024]). However, all tested nucleotides caused a negligible shift with both DIC or OGC at all pH values tested between 6.0 and 8.0 (Fig. 4A; Appendix Fig. S5). Thus, despite having many residues in common (Fig. 4B–D), UCP1 has evolved to have a few specific residues that allow high-affinity binding of nucleotides without a strong selection for nucleobase.
Differential scanning fluorimetry (nanoDSF) (Alexandrov et al, [2008]) was carried out with 2 µg UCP1, DIC or OGC protein (100 mM MES/HEPES, pH range 6.0–8.0, 25 mM NaCl, 1 mM TCEP, 0.01% lauryl maltose neopentyl glycol and 0.01 mg/mL tetraoleoyl cardiolipin) and, when required, 1 mM nucleotide, as indicated. The proteins have the following number of tryptophans: UCP1 (two); OGC (two); DIC (one). The samples were loaded into nanoDSF-grade standard glass capillaries. The temperature was increased by […] every minute from 25 to 95 °C, the intrinsic fluorescence was measured in a Prometheus NT.48 nanoDSF device, and the apparent Tm was calculated with the PR.ThermControl software (NanoTemper Technologies).

[4] = biological target: T1, UCP1; assay: as above; type: binding

SMILES: Cc1cn([C@H]2C[C@H](O)[C@@H](COP(=O)(O)OP(=O)(O)OP(=O)(O)O)O2)c(=O)[nH]c1=O [dTTP, thymidine triphosphate]
- Proton influx rate [1]: 84.11 nmol H+/min and 42.34 nmol H+/min and 68.93 nmol H+/min
- binding affinity to UCP1 (in words) ([2]; ITC): highest binding affinities
- Kd ([2]; ITC, pH 6.0, 20 °C, mean ± standard deviation of three biological repeats (Fig. 2A-E)): 1130 ± 90 nM
- Kd ([2]; ITC, single biological repeats (source data Fig. 2F)): 1240 nM and 1090 nM and 1070 nM
- isotherm data point (enthalpy change per injection) ([2]; Molar ratio (Nucleotide/UCP) 0.120417, pH 6.0, 20 °C): -22.0628
- isotherm data point (enthalpy change per injection) ([2]; Molar ratio (Nucleotide/UCP) 0.181226, pH 6.0, 20 °C): -22.1545
- isotherm data point (enthalpy change per injection) ([2]; Molar ratio (Nucleotide/UCP) 0.242439, pH 6.0, 20 °C): -21.2571
- isotherm data point (enthalpy change per injection) ([2]; Molar ratio (Nucleotide/UCP) 0.304059, pH 6.0, 20 °C): -20.8684
- isotherm data point (enthalpy change per injection) ([2]; Molar ratio (Nucleotide/UCP) 0.366087, pH 6.0, 20 °C): -22.682
- isotherm data point (enthalpy change per injection) ([2]; Molar ratio (Nucleotide/UCP) 0.428528, pH 6.0, 20 °C): -21.6485
- isotherm data point (enthalpy change per injection) ([2]; Molar ratio (Nucleotide/UCP) 0.491383, pH 6.0, 20 °C): -18.3951
- isotherm data point (enthalpy change per injection) ([2]; Molar ratio (Nucleotide/UCP) 0.554656, pH 6.0, 20 °C): -20.6625
- isotherm data point (enthalpy change per injection) ([2]; Molar ratio (Nucleotide/UCP) 0.618348, pH 6.0, 20 °C): -18.8854
- isotherm data point (enthalpy change per injection) ([2]; Molar ratio (Nucleotide/UCP) 0.682464, pH 6.0, 20 °C): -18.4581
- isotherm data point (enthalpy change per injection) ([2]; Molar ratio (Nucleotide/UCP) 0.747006, pH 6.0, 20 °C): -16.8767
- isotherm data point (enthalpy change per injection) ([2]; Molar ratio (Nucleotide/UCP) 0.811976, pH 6.0, 20 °C): -15.5439
- isotherm data point (enthalpy change per injection) ([2]; Molar ratio (Nucleotide/UCP) 0.877378, pH 6.0, 20 °C): -14.5814
- isotherm data point (enthalpy change per injection) ([2]; Molar ratio (Nucleotide/UCP) 0.943214, pH 6.0, 20 °C): -11.542
- isotherm data point (enthalpy change per injection) ([2]; Molar ratio (Nucleotide/UCP) 1.00949, pH 6.0, 20 °C): -9.131
- isotherm data point (enthalpy change per injection) ([2]; Molar ratio (Nucleotide/UCP) 1.0762, pH 6.0, 20 °C): -6.9461
- isotherm data point (enthalpy change per injection) ([2]; Molar ratio (Nucleotide/UCP) 1.14336, pH 6.0, 20 °C): -4.409
- isotherm data point (enthalpy change per injection) ([2]; Molar ratio (Nucleotide/UCP) 1.21096, pH 6.0, 20 °C): -2.755
- isotherm data point (enthalpy change per injection) ([2]; Molar ratio (Nucleotide/UCP) 1.27901, pH 6.0, 20 °C): -1.022
- isotherm data point (enthalpy change per injection) ([2]; Molar ratio (Nucleotide/UCP) 1.34751, pH 6.0, 20 °C): -0.7829
- isotherm data point (enthalpy change per injection) ([2]; Molar ratio (Nucleotide/UCP) 1.41647, pH 6.0, 20 °C): -1.325
- isotherm data point (enthalpy change per injection) ([2]; Molar ratio (Nucleotide/UCP) 1.48589, pH 6.0, 20 °C): -0.8361
- isotherm data point (enthalpy change per injection) ([2]; Molar ratio (Nucleotide/UCP) 1.55577, pH 6.0, 20 °C): 0.501
- isotherm data point (enthalpy change per injection) ([2]; Molar ratio (Nucleotide/UCP) 1.62611, pH 6.0, 20 °C): 0.6153
- isotherm data point (enthalpy change per injection) ([2]; Molar ratio (Nucleotide/UCP) 1.69692, pH 6.0, 20 °C): 0.02513
- isotherm data point (enthalpy change per injection) ([2]; Molar ratio (Nucleotide/UCP) 1.76819, pH 6.0, 20 °C): -0.2521
- isotherm data point (enthalpy change per injection) ([2]; Molar ratio (Nucleotide/UCP) 1.83995, pH 6.0, 20 °C): 0.8236
- isotherm data point (enthalpy change per injection) ([2]; Molar ratio (Nucleotide/UCP) 1.91217, pH 6.0, 20 °C): 0.03383
- isotherm data point (enthalpy change per injection) ([2]; Molar ratio (Nucleotide/UCP) 1.98488, pH 6.0, 20 °C): 0.2054
- change in apparent melting temperature (ΔTm) of hOGC [3]: 0.5 and 0.3
- difference in ΔTm versus GTP ([4]; 1 mM nucleotide, pH 6.0): 2.7 °C
- temperature shift (ΔTm) ([4]; 1 mM nucleotide, pH 6.0, detergent-solubilised UCP1, mean of three biological repeats): 18.9 °C
- ΔTm at 1000 µM ([4]; pH 6, read-out: thermal shift (ΔTm), 1 mM nucleotide, pH 6.0, single repeats (source data Fig. 1D)): 19 °C
- ΔTm at 1000 µM ([4]; pH 6.5, read-out: thermal shift (ΔTm), 1 mM nucleotide, pH 6.5, single repeats (source data Fig. 1D)): 14.8 °C
- ΔTm at 1000 µM ([4]; pH 7, read-out: thermal shift (ΔTm), 1 mM nucleotide, pH 7.0, single repeats (source data Fig. 1D)): 10.1 °C
- ΔTm at 1000 µM ([4]; pH 7.5, read-out: thermal shift (ΔTm), 1 mM nucleotide, pH 7.5, single repeats (source data Fig. 1D)): 4 °C
